Measured values: ChEMBL document CHEMBL1154064, “Synthesis and DNA cleavage activity of 2-hydrazinyl-1,4,5,6-tetrahydropyrimidine containing hydroxy group” (2009)
Active and inactive are the calls of the source. No cut-off for these calls is given here.

How the values were obtained:
[1] = system: Nucleic Acid; test: Binding affinity to Escherichia coli pUC19 DNA assessed as form 2 DNA level at 0.349 mM after 28.18 hrs by agarose gel electrophoresis; format: nucleic-acid assay
[2] = system: HeLa; test: Growth inhibition of human HeLa cells at 10 uM after 72 hrs by MTT assay; format: functional; parameters: scale not given: the % may be the effect or the level left
[3] = system: Nucleic Acid; test: Binding affinity to Escherichia coli pUC19 DNA assessed as form 2 DNA level at 0.175 mM after 23.12 hrs by agarose gel electrophoresis; format: nucleic-acid assay
[4] = system: Nucleic Acid; test: Binding affinity to supercoiled Escherichia cloli pUC19 DNA assessed as formation of nicked circular DNA at 1.10 mM at pH 6.0 to 8.5 for 24 hrs by agarose gel electrophoresis; format: nucleic-acid assay; conditions: Escherichia coli
[5] = system: Nucleic Acid; test: Binding affinity to Escherichia coli pUC19 DNA assessed as form 2 DNA level at 0.463 mM after 9.07 hrs by agarose gel electrophoresis; format: nucleic-acid assay
[6] = system: Nucleic Acid; test: Binding affinity to Escherichia coli pUC19 DNA assessed as form 2 DNA level at 0.175 mM after 9.07 hrs by agarose gel electrophoresis; format: nucleic-acid assay
[7] = system: Nucleic Acid; test: Binding affinity to Escherichia coli pUC19 DNA assessed as form 1 DNA level at 0.130 mM by agarose gel electrophoresis; format: nucleic-acid assay
[8] = system: Nucleic Acid; test: Binding affinity to Escherichia coli pUC19 DNA assessed as form 2 DNA level at 0.130 mM by agarose gel electrophoresis; format: nucleic-acid assay
[9] = system: Nucleic Acid; test: Binding affinity to Escherichia coli pUC19 DNA assessed as form 1 DNA level at 0.175 mM after 13.07 hrs by agarose gel electrophoresis; format: nucleic-acid assay
[10] = system: Nucleic Acid; test: Binding affinity to Escherichia coli pUC19 DNA assessed as form 1 DNA level at 0.463 mM after 25.35 hrs by agarose gel electrophoresis; format: nucleic-acid assay
[11] = system: Nucleic Acid; test: Binding affinity to Escherichia coli pUC19 DNA assessed as form 1 DNA level at 0.463 mM after 23.12 hrs by agarose gel electrophoresis; format: nucleic-acid assay
[12] = system: Nucleic Acid; test: Binding affinity to Escherichia coli pUC19 DNA assessed as form 2 DNA level at 0.320 mM after 13.07 hrs by agarose gel electrophoresis; format: nucleic-acid assay
[13] = system: HL-60; test: Growth inhibition of human HL60 cells at 10 uM after 72 hrs by MTT assay; format: functional; parameters: scale not given: the % may be the effect or the level left
[14] = system: Nucleic Acid; test: Binding affinity to Escherichia coli pUC19 DNA assessed as form 2 DNA level at 0.463 mM after 23.12 hrs by agarose gel electrophoresis; format: nucleic-acid assay
[15] = system: Nucleic Acid; test: Binding affinity to Escherichia coli pUC19 DNA assessed as form 1 DNA level at 0.130 mM after 11.30 hrs by agarose gel electrophoresis; format: nucleic-acid assay
[16] = system: Nucleic Acid; test: Binding affinity to Escherichia coli pUC19 DNA assessed as form 2 DNA level at 0.463 mM after 25.35 hrs by agarose gel electrophoresis; format: nucleic-acid assay
[17] = system: Nucleic Acid; test: Binding affinity to Escherichia coli pUC19 DNA assessed as form 1 DNA level at 0.463 mM after 9.07 hrs by agarose gel electrophoresis; format: nucleic-acid assay
[18] = system: Nucleic Acid; test: Binding affinity to Escherichia coli pUC19 DNA assessed as form 2 DNA level at 0.320 mM after 25.35 hrs by agarose gel electrophoresis; format: nucleic-acid assay
[19] = system: Nucleic Acid; test: Binding affinity to Escherichia coli pUC19 DNA assessed as form 1 DNA level at 0.349 mM after 26.15 hrs by agarose gel electrophoresis; format: nucleic-acid assay
[20] = system: Nucleic Acid; test: Binding affinity to Escherichia coli pUC19 DNA assessed as form 2 DNA level at 0.698 mM after 10.70 hrs by agarose gel electrophoresis; format: nucleic-acid assay
[21] = system: Nucleic Acid; test: Binding affinity to Escherichia coli pUC19 DNA assessed as form 1 DNA level at 0.130 mM after 23.52 hrs by agarose gel electrophoresis; format: nucleic-acid assay
[22] = system: Nucleic Acid; test: Binding affinity to Escherichia coli pUC19 DNA assessed as form 1 DNA level at 0.698 mM after 23.80 hrs by agarose gel electrophoresis; format: nucleic-acid assay
[23] = system: Nucleic Acid; test: Binding affinity to Escherichia coli pUC19 DNA assessed as form 2 DNA level at 0.320 mM after 27.33 hrs by agarose gel electrophoresis; format: nucleic-acid assay
[24] = system: Nucleic Acid; test: Binding affinity to Escherichia coli pUC19 DNA assessed as form 2 DNA level at 0.698 mM after 8.45 hrs by agarose gel electrophoresis; format: nucleic-acid assay
[25] = system: Nucleic Acid; test: Binding affinity to Escherichia coli pUC19 DNA assessed as form 1 DNA level at 0.698 mM after 12.13 hrs by agarose gel electrophoresis; format: nucleic-acid assay
[26] = system: Nucleic Acid; test: Binding affinity to Escherichia coli pUC19 DNA assessed as form 2 DNA level at 0.320 mM after 9.07 hrs by agarose gel electrophoresis; format: nucleic-acid assay
[27] = system: Nucleic Acid; test: Binding affinity to Escherichia coli pUC19 DNA assessed as form 1 DNA level at 0.320 mM after 23.12 hrs by agarose gel electrophoresis; format: nucleic-acid assay
[28] = system: Nucleic Acid; test: Binding affinity to Escherichia coli pUC19 DNA assessed as form 2 DNA level at 0.349 mM after 11.33 hrs by agarose gel electrophoresis; format: nucleic-acid assay
[29] = system: Nucleic Acid; test: Binding affinity to Escherichia coli pUC19 DNA assessed as form 1 DNA level at 0.175 mM after 31.48 hrs by agarose gel electrophoresis; format: nucleic-acid assay
[30] = system: Nucleic Acid; test: Binding affinity to Escherichia coli pUC19 DNA assessed as form 2 DNA level at 0.175 mM after 27.33 hrs by agarose gel electrophoresis; format: nucleic-acid assay
[31] = system: Nucleic Acid; test: Binding affinity to Escherichia coli pUC19 DNA assessed as form 2 DNA level at 0.698 mM after 6.42 hrs by agarose gel electrophoresis; format: nucleic-acid assay
[32] = system: Nucleic Acid; test: Binding affinity to Escherichia coli pUC19 DNA assessed as form 2 DNA level at 0.130 mM after 8.08 hrs by agarose gel electrophoresis; format: nucleic-acid assay
[33] = system: Nucleic Acid; test: Binding affinity to Escherichia coli pUC19 DNA assessed as form 1 DNA level at 0.320 mM after 29.33 hrs by agarose gel electrophoresis; format: nucleic-acid assay
[34] = system: Nucleic Acid; test: Binding affinity to Escherichia coli pUC19 DNA assessed as form 1 DNA level at 0.175 mM after 27.33 hrs by agarose gel electrophoresis; format: nucleic-acid assay
[35] = system: Nucleic Acid; test: Binding affinity to Escherichia coli pUC19 DNA assessed as form 2 DNA level at 0.698 mM after 14.22 hrs by agarose gel electrophoresis; format: nucleic-acid assay
[36] = system: HeLa; test: Growth inhibition of human HeLa cells at 1000 uM after 72 hrs by MTT assay; format: functional; parameters: scale not given: the % may be the effect or the level left
[37] = system: Nucleic Acid; test: Binding affinity to Escherichia coli pUC19 DNA assessed as form 1 DNA level at 0.698 mM after 8.45 hrs by agarose gel electrophoresis; format: nucleic-acid assay
[38] = system: Nucleic Acid; test: Binding affinity to Escherichia coli pUC19 DNA assessed as form 2 DNA level at 0.463 mM after 29.33 hrs by agarose gel electrophoresis; format: nucleic-acid assay
[39] = system: Nucleic Acid; test: Binding affinity to Escherichia coli pUC19 DNA assessed as form 2 DNA level at 0.349 mM by agarose gel electrophoresis; format: nucleic-acid assay
[40] = system: Nucleic Acid; test: Binding affinity to Escherichia coli pUC19 DNA assessed as form 2 DNA level at 0.130 mM after 23.52 hrs by agarose gel electrophoresis; format: nucleic-acid assay
[41] = system: Nucleic Acid; test: Binding affinity to Escherichia coli pUC19 DNA assessed as form 2 DNA level at 0.175 mM by agarose gel electrophoresis; format: nucleic-acid assay

Cl.Cl.NNC1=NCC(O)CN1 (stereo unspecified)
Activity [1]: 34.4%
Activity [2]: 0%
Activity [3]: 19.2%
Activity [4]: Active
Activity [5]: 16.6%
Activity [6]: 6.09%
Activity [7]: 88.6%
Activity [8]: 11.4%
Activity [9]: 90.8%
Activity [10]: 60.2%
Activity [11]: 62%
Activity [12]: 87.8%
Activity [13]: 2%
Activity [14]: 38%
Activity [15]: 78.2%
Activity [16]: 39.8%
Activity [17]: 83.3%
Activity [18]: 69.8%
Activity [19]: 68.5%
Activity [20]: 21.8%
Activity [21]: 74%
Activity [22]: 55%
Activity [23]: 67.8%
Activity [24]: 15.2%
Activity [25]: 77%
Activity [26]: 91.7%
Activity [27]: 68%
Activity [28]: 9.09%
Activity [29]: 74%
Activity [30]: 24%
Activity [31]: 13.4%
Activity [32]: 16.2%
Activity [33]: 59%
Activity [34]: 76%
Activity [35]: 28.4%
Activity [36]: 0%
Activity [37]: 84.8%
Activity [38]: 42.2%
Activity [39]: 2.46%
Activity [40]: 26%
Activity [41]: 2.93%
